Assay results: ChEMBL document CHEMBL1201862, “PubChem BioAssay data set” (2004)
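The compound was tested at five concentrations on cells cultured in 96-well plates, with a 48-hour exposure period. GI50 marks 50% less growth.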 Calls of active or inactive are those of the source. Rule as the data show it: active = GI50 up to about 1.1 µM and inactive = higher.

Legend:
Test in all cases: growth of human tumour cells (NCI), 48 h
[1] = test system: 786-0
[2] = test system: A498
[3] = test system: A549
[4] = test system: ACHN
[5] = test system: CAKI-1
[6] = test system: CCRF-CEM
[7] = test system: COLO 205
[8] = test system: DLD-1
[9] = test system: DMS-114
[10] = test system: EKVX
[11] = test system: HCT-116
[12] = test system: HCT-15
[13] = test system: HL-60
[14] = test system: HOP-18
[15] = test system: HOP-62
[16] = test system: HOP-92
[17] = test system: HT-29
[18] = test system: IGROV-1
[19] = test system: K562
[20] = test system: KM-20L2
[21] = test system: KM12
[22] = test system: LXFL 529
[23] = test system: M14
[24] = test system: M19-MEL
[25] = test system: MOLT-4
[26] = test system: Malme-3M
[27] = test system: NCI-H226
[28] = test system: NCI-H23
[29] = test system: NCI-H460
[30] = test system: NCI-H522
[31] = test system: OVCAR-3
[32] = test system: OVCAR-4
[33] = test system: OVCAR-5
[34] = test system: OVCAR-8
[35] = test system: RPMI-8226
[36] = test system: RXF 393
[37] = test system: SF-268
[38] = test system: SF-295
[39] = test system: SF-539
[40] = test system: SK-MEL-28
[41] = test system: SK-MEL-2
[42] = test system: SK-MEL-5
[43] = test system: SK-OV-3
[44] = test system: SN12C
[45] = test system: SNB-19
[46] = test system: SNB-75
[47] = test system: SNB-78
[48] = test system: SW-620
[49] = test system: TK-10
[50] = test system: U-251
[51] = test system: UACC-257
[52] = test system: UACC-62
[53] = test system: UO-31
[54] = test system: XF498

## Cc1ccc(C2=C(c3ccccc3)C(Br)(c3ccccc3)C(c3ccccc3)=C2c2ccc(C)cc2)cc1
[1]
  GI50: > 100 µM (inactive)
[2]
  GI50: > 100 µM (inactive)
[3]
  GI50: > 100 µM (inactive)
[4]
  GI50: > 100 µM (inactive)
[5]
  GI50: > 100 µM (inactive)
[6]
  GI50: > 100 µM (inactive)
[7]
  GI50: > 100 µM (inactive)
[8]
  GI50: > 100 µM (inactive)
[9]
  GI50: > 100 µM (inactive)
[10]
  GI50: > 100 µM (inactive)
[11]
  GI50: > 100 µM (inactive)
[12]
  GI50: > 100 µM
[13]
  GI50: > 100 µM (inactive)
[14]
  GI50: > 100 µM (inactive)
[15]
  GI50: > 100 µM (inactive)
[16]
  GI50: > 100 µM (inactive)
[17]
  GI50: > 100 µM (inactive)
[18]
  GI50: > 100 µM (inactive)
[19]
  GI50: > 100 µM (inactive)
[20]
  GI50: > 100 µM (inactive)
[21]
  GI50: > 100 µM (inactive)
[22]
  GI50: > 100 µM (inactive)
[23]
  GI50: > 100 µM (inactive)
[24]
  GI50: > 100 µM (inactive)
[25]
  GI50: > 100 µM (inactive)
[26]
  GI50: > 100 µM (inactive)
[27]
  GI50: > 100 µM (inactive)
[28]
  GI50: > 100 µM (inactive)
[29]
  GI50: > 100 µM (inactive)
[30]
  GI50: > 100 µM (inactive)
[31]
  GI50: > 100 µM (inactive)
[32]
  GI50: > 100 µM (inactive)
[33]
  GI50: > 100 µM (inactive)
[34]
  GI50: > 100 µM (inactive)
[35]
  GI50: > 100 µM (inactive)
[36]
  GI50: > 100 µM (inactive)
[37]
  GI50: > 100 µM (inactive)
[38]
  GI50: > 100 µM (inactive)
[39]
  GI50: > 100 µM (inactive)
[40]
  GI50: > 100 µM (inactive)
[41]
  GI50: > 100 µM (inactive)
[42]
  GI50: > 100 µM (inactive)
[43]
  GI50: > 100 µM (inactive)
[44]
  GI50: > 100 µM (inactive)
[45]
  GI50: > 100 µM (inactive)
[46]
  GI50: > 100 µM (inactive)
[47]
  GI50: > 100 µM (inactive)
[48]
  GI50: > 100 µM (inactive)
[49]
  GI50: > 100 µM (inactive)
[50]
  GI50: > 100 µM (inactive)
[51]
  GI50: > 100 µM (inactive)
[52]
  GI50: > 100 µM (inactive)
[53]
  GI50: > 100 µM (inactive)
[54]
  GI50: > 100 µM (inactive)
